Source: paper PMC3320797 (Chemical biology & drug design, 2010)
“Also recorded” adds a separate entry of the source. Like-named read-outs stand apart in the source and are kept apart here.

Experiments:
Aqueous solubility = assay type: physicochemical; conditions: aqueous solution
p15-EC RNH fragment [1] = molecular target: T1, p15-EC RNH fragment (Human immunodeficiency virus type 1 group M subtype B, UniProt P04585, DELINS1094-1102[…]); test: RNH activity of p15-EC RNH domain fragment, rapid fluorescence assay; assay type: biochemical, HIV-1 / Escherichia coli chimera; conditions: for IC50: read-out: Inhibition of the p15-EC RNH fragment (IC50), 2 mM Mn2+
HIV-1 RT DNA polymerase [2] = molecular target: T2, HIV-1 RT DNA polymerase (Human immunodeficiency virus type 1 group M subtype B, UniProt P04585); test: RT RNA-dependent DNA polymerase activity assay; assay type: biochemical; conditions: read-out: Inhibition of RT DNA polymerase activity (IC50)
[3] = molecular target: p15-EC RNH domain fragment (Human immunodeficiency virus type 1 group M subtype B, UniProt P04585, DELINS1094-1102[…]); test: NMR 1H-15N HSQC chemical shift titration, dissociation constant; assay type: binding, HIV-1 / Escherichia coli chimera; conditions: read-out: Inhibitor dissociation constant, KD
HIV-1 RT DNA polymerase [4] = molecular target: T2, HIV-1 RT DNA polymerase; conditions: read-out: Inhibition of RT DNA polymerase activity (IC50); ref [20]; cited from earlier work
p15-EC RNH fragment [5] = molecular target: T1, p15-EC RNH fragment; conditions: read-out: Inhibition of the p15-EC RNH fragment (IC50); ref [20]; cited from earlier work
HIV-1 = conditions: ref [21], [22]; cited from earlier work

O=C(O)c1ccc(-c2cccc(/C=N/NC(=O)c3ccc(O)c(O)c3)c2)cc1 [BHMP03]
Aqueous solubility relative to DHBNH (Aqueous solubility): more soluble in aqueous solution than the naphthyl-based DHBNH | Ratio of p15-EC RNH IC50 relative to BHMP07 (p15-EC RNH fragment [1]; IC50 of BHMP03 versus BHMP07): more than 50 times | IC50 (p15-EC RNH fragment [1]): > 50 µM | IC50 (HIV-1 RT DNA polymerase [2]): > 50 µM

O=C(O)c1ccc(-c2cccc(/C=N/NC(=O)c3cc(O)c(O)c(O)c3)c2)cc1 [BHMP07]
Aqueous solubility relative to DHBNH (Aqueous solubility): higher aqueous solubility than DHBNH; also recorded: more soluble in aqueous solution than the naphthyl-based DHBNH | Solubility at the levels used in the NMR studies (Aqueous solubility; inhibitor up to 0.8 mM, overnight incubation): not likely completely soluble in aqueous solution | Kd ([3]; residue A76 (502), + 20 mM Mg2+): 311 ± 41.5 µM | Kd ([3]; residue A76 (502), no Mg2+): 192 ± 28.9 µM | Kd ([3]; residue I79 (505), + 20 mM Mg2+): 372 ± 60.2 µM | Kd ([3]; residue I79 (505), no Mg2+): 212 ± 20.1 µM | Kd ([3]; residue I114 (526), + 20 mM Mg2+): 321 ± 26.2 µM | Kd ([3]; residue I114 (526), no Mg2+): 217 ± 38.4 µM | Kd ([3]; residue K93, + 20 mM Mg2+): 454 ± 151 µM | Kd ([3]; residue K93, no Mg2+): 194 ± 18.3 µM | Kd ([3]; residue Q74 (500), + 20 mM Mg2+): 246 ± 72.8 µM | Kd ([3]; residue V124 (536), no Mg2+): 242 ± 18.2 µM | Kd ([3]; residue Y75 (501), + 20 mM Mg2+): 262 ± 135 µM | IC50 (p15-EC RNH fragment [1]): 0.8 ± 0.06 µM | IC50 (HIV-1 RT DNA polymerase [2]): 0.3 ± 0.2 µM

COc1ccc2ccccc2c1/C=N/NC(=O)c1ccc(O)c(O)c1 [DHBNH, dihydroxy benzoyl naphthyl hydrazone]
IC50 (HIV-1 RT DNA polymerase [4]): > 25 µM | IC50 (p15-EC RNH fragment [5]): 18.5 ± 3.4 µM

CC(C)c1ccc(O)c(=O)c(O)c1 [β-thujaplicinol]
Antiviral activity (HIV-1): neither of these compounds has antiviral activity
